Patent publication US6410560B1, “Drug for relieving pain and promoting the removal of calculi in urolithiasis” (Kissei Pharmaceutical Co., Ltd., priority 1995, dated 2002)

Tested on: human ureteral smooth muscle
Assay: Relaxation of 40 mM KCl-induced contraction of isolated human ureteral smooth muscle strips
Format: cell-based
Conditions: for ureteral relaxing effect: 40 mM KCl-induced tonic contraction, 10^−6 M phentolamine present, FIG. 1
Procedure: Measurement of the contractile force of the ureteral smooth muscle strip (1) Preparation of smooth muscle strips Specimens of human ureter were obtained from patients undergoing nephrectomy or total cystectomy. After the specimens were carefully dissected free from the surrounding fat tissues, they were cut into spiral strips. The ureteral strips of about 20 mm in length and 5 mm in width were prepared. (2) Experimental conditions Buffer solution; Locke's-solution No.2: NaCl (154 mM), KCl (5.6 mM), CaCl2 (2.1 mM), NaHCO3 (5.6 mM) and glucose (3.6 mM) Ureteral muscle strips without any spontaneous rhythmic contractions were used. An initial resting tension of about 1.0 g was placed. The actions of drugs against the 40 mM KCl-induced tonic contraction were evaluated in the presence of 10^−6 M phentolamine. […] The evaluation of drugs; The drug-induced relaxation was expressed as a percentage of the maximal relaxing response to 10^−5 M of isoproterenol. The ureteral tension before the treatment is indicated as 100%, and the tension after treatment of 10^−5 M of isoproterenol which produces maximal ureteral relaxation is indicated as 0%. According to the methods described above, the ureteral relaxing effects of the drug were measured using the human ureteral smooth muscle strips. According to the method described above, the interaction between a β-adrenoceptor stimulant and a β-adrenoceptor blocker was evaluated in human ureteral smooth muscle strips using the following drugs.

In the case of CC(C)(C)NCC(O)COc1cccc2[nH]c(=O)[nH]c12.Cl (racemic) [CGP-12,177A, (±)-4-[3-[(1,1-dimethylethyl)amino]-2-hydroxypropoxy]-1,3-dihydro-2H-benzimidazol-2-one hydrochloride], the ureteral relaxing effect is reported as “produced apparent ureteral relaxation”.
With Cc1ccc(OCC(O)C(C)NC(C)C)c2c1CCC2.Cl (racemic) [ICI-118,551, (±)-1-[(2,3-dihydro-7-methyl-1H-inden-4-yl)oxy]-3-[(1-methylethyl)amino]-2-butanol hydrochloride] the “blocking of isoproterenol-induced ureteral relaxation” value (40 mM KCl contraction, ICI-118,551 100 nM pre-treatment, FIG. 2) was “attenuated the isoproterenol-induced ureteral relaxation, but did not completely block”.
In the case of CC(C)NCC(O)c1ccc(O)c(O)c1 (centres unmarked) [isoproterenol], the “relaxation produced by isoproterenol in the presence of ICI-118,551” value (40 mM KCl contraction, pre-treatment with 100 nM ICI-118,551, relative to maximal relaxation by 10^−5 M isoproterenol alone, FIG. 2) is reported as “about 50%” and the ureteral relaxing effect is reported as “showed a more potent relaxing effect”.
CCC(NC(C)C)C(O)c1ccc(O)c2[nH]c(=O)ccc12 (centres unmarked) [procaterol] was tested, and the ureteral relaxing effect was “produced apparent ureteral relaxation”.
